# Experimental data from paper PMC8899577, “Targeting the anti-apoptotic Bcl-2 family proteins: machine learning virtual screening and biological evaluation of new small molecules” (Theranostics, 2022).
# Legend:
# M14 cells [1] = assay: Western blot of PARP1 cleavage, M14; type: cell-based, Human; conditions: 72 h
# Experimental: (§1) Western blot analyses of total protein extracts were performed as previously described. Immunodetection was performed using antibodies directed to poly (ADP-ribose) polymerase (PARP; BD Biosciences San Diego, CA, USA), LC3B (Cell Signaling Technology, Danvers, MA), HSP72/73 (Calbiochem, EMD Biosciences, La Jolla, CA), Bcl-2 (SC-509, Santa Cruz Biotechnology Inc, Dallas, TX, USA), Bcl-xL (SC-271121, Santa Cruz Biotechnology Inc), Mcl-1 (SC-12756, Santa Cruz Biotechnology Inc) α-tubulin (Santa Cruz Biotechnology Inc) actin (Sigma-Aldrich, St. Louis, Missouri, USA). Anti-rabbit or anti-mouse immunoglobulin G-horseradish peroxidase-conjugated antibodies (Amersham Biosciences, Freiburg, Germany) were used as secondary antibody. Images were acquired by Image Lab Software (Bio-Rad, Hercules, CA, USA), using a ChemiDoc System instrument (Bio-Rad). The densitometric evaluation was performed using Image J software and normalized with relative controls.
# Figure 5 Analysis of apoptosis induction by IS20 and IS21 in leukemia, melanoma and NSCLC cells. […] (A-F) Reported images are representative of two independent experiments with similar results. HSP72/73 or α-Tubulin are shown as loading and transferring control. (G) Flow cytometric quantification of cells in the subG1 peak of cell cycle distribution by propidium iodide staining in HL60 cell line treated with IS20 or IS21 (20 μM for 24 h) and in M14, H1299 and MDA-MB-231 cell lines treated with IS20 or IS21 (20 μM for 72 h). Data are reported as mean ± SD of three independent experiments. p-values were calculated between control (Ctrl) and treated cells, * p < 0.05. (H) Flow cytometric quantification of cells in the subG1 peak by propidium iodide staining in M14 and H1299 cell lines treated with IS20 or IS21 (20 μM, 72 h) in presence or absence of the pan caspase inhibitor z-VAD (50 μM). p-values were calculated between treated control (Ctrl) cells, # p < 0.01, ## p < 0.001 or between cells treated with IS20 or IS21 alone or in combination with z-VAD, * p < 0.05, ** p < 0.005. (G-H) Data are reported as mean of two (H) or three (G) experiments ± SD.
# Mcl-1 = Mcl-1 (Homo sapiens, UniProt Q07820); assay: SPR binding to immobilized Mcl-1; conditions: analyte 0.3-30 µM
# Mcl-1, sequence (Q07820 whole entry): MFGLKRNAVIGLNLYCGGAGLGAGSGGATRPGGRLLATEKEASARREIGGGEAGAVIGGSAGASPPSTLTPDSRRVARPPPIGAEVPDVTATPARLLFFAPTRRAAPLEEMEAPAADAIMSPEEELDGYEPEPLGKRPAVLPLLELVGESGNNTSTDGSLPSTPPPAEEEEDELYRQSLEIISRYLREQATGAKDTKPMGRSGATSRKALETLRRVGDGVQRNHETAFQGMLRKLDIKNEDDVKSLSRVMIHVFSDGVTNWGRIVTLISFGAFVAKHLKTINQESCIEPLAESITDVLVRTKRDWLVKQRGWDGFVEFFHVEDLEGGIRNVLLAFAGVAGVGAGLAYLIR
# Experimental: (§2) FastStep experiments were performed with a SensiQ Pioneer apparatus. Bcl-2 immobilization on COOH5 sensorchips was carried out essentially as previously reported, [40]. All the experiments were carried out at 25 °C in degassed HEPES 20 mM, pH 7.4, NaCl 150 mM, 0.005% surfactant P20 + 2% DMSO (HBSP2%D). […] Each sensorgram is the average of at least three experiments. The decrease in Response Units (RU) after 165 s indicates analyte dissociation from the immobilized Bcl-2 upon HSBP2%D buffer injection. Control SPR experiments were carried out measuring sensorgrams on Bcl-xL and Mcl-1 (ligands) immobilized on COOH5 sensorchips as previously reported at 25 °C in degassed HBSP2%D buffer. […] Each sensorgram is the average of at least three experiments. The decrease in RU after 180 s indicates analyte dissociation from the immobilized ligands upon HSBP2%D buffer injection. Kinetic evaluation of the sensorgrams was carried out using the Qdat 4.0 program; best fittings were obtained with 2 sites and indicated in red (reported KD values refer to dissociation constants of the highest affinity site).
# Figure 3 SPR analysis of the interaction between IS20 or IS21 and Bcl-xL and Mcl-1 proteins. SPR experiments were carried out measuring sensorgrams on Bcl-xL and Mcl-1 (ligands) immobilized on COOH5 sensorchips at 25 °C in degassed HBSP2%D buffer. IS20 and IS21 (analytes) were injected at a flow rate = 30 μL/min, at the following concentrations: 0.3 μM (only for Mcl-1 experiments); 1 μM; 3 μM; 10 μM; 30 μM. Each sensorgram is the average of at least three experiments. The decrease in RU (Response Units) after 180 s indicates analyte dissociation from the immobilized ligands upon HSBP2%D buffer injection. The fitted KD values for Bcl-xL are the following. IS20: 0.42 ± 0.09 μM and IS21: 0.51 ± 0.17 μM. The fitted KD values for Mcl-1are the following. IS20: 3.9 ± 0.30 μM and IS21: 1.16 ± 0.14 μM;
# M14 cells [2] = assay: Western blot of LC3B-I/LC3B-II (autophagy), M14; type: cell-based, Human; conditions: 72 h
# Experimental: as §1
# Figure 6 Analysis of autophagosome accumulation in M14 and H1299 cells after treatment with IS20 or IS21. Western blot analysis of LC3B-I and LC3B-II protein levels in (A) M14, and (B) H1299 cell lines untreated (Ctrl) or treated with IS20 or IS21 for 72 h at the indicated concentrations. (C) Western blot analysis of LC3B-I and LC3B-II levels in HL60 and U937 cell lines untreated (Ctrl) or treated with IS20 or IS21 (20 μM for 24 h). (A-C) Reported images are representative of two independent experiments with similar results. HSP72/73, Actin or α-Tubulin are shown as loading and transferring control. […] Ratio of LC3B-II on LC3B-I levels, after normalization on HSP72/73, Actin or α-Tubulin, is quantified by densitometric analysis. (D) (Upper panels) Representative images and (lower panels) relative quantification of fluorescence microscopic analysis of LC3B puncta positive cells in M14 EGFP-LC3B and H1299 EGFP-LC3B transfected cells, treated with IS20 or IS21 (20 µM for 72h). […] Cells with more than 10 puncta were considered autophagy-positive. p-values were calculated between untreated (Ctrl) and treated cells, * p < 0.05.
# Bcl-2 = Bcl-2 (Homo sapiens, UniProt P10415); assay: SPR binding to immobilized Bcl-2; conditions: SPR, 25 °C, 2-site fit, highest affinity site
# Bcl-2, sequence (P10415 whole entry): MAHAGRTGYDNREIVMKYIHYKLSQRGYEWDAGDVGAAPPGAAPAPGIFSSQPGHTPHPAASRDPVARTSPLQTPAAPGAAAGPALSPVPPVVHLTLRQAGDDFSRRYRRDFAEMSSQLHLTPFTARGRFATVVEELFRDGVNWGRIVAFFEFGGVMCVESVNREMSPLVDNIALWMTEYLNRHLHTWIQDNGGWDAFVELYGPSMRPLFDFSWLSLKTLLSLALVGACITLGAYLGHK
# Experimental: as §2
# Figure 2 SPR analysis of the interaction between putative inhibitors of Bcl-2 anti-apoptotic members and Bcl-2 protein. Bcl-2 was immobilized via amine coupling onto a COOH5 sensorchip; Bcl-2 family inhibitors (analytes) were injected at a flow rate = 100 μL/min, at the following concentrations. 0-30 s: 0.625 μM; 31-60 s: 1.25 μM; 61-90 s: 2.5 μM; 91-120 s: 5 μM; 121-150 s: 10 μM; 151-165 s: 20 μM. The increase in Response Units (RU) relative to baseline indicates complex formation between the immobilized Bcl-2 ligand and the analytes upon Bcl-2 family inhibitors injection. The decrease in RU after 165 s indicates analyte dissociation from the immobilized Bcl-2 upon buffer injection. Full fittings with 2 sites are indicated in red. The fitted KD values are the following.
smiles,measurement,setting,value
"CC1(C)CCC(CN2CCN(c3ccc(C(=O)NS(=O)(=O)c4ccc(NCC5CCOCC5)c([N+](=O)[O-])c4)c(Oc4cnc5[nH]ccc5c4)c3)CC2)=C(c2ccc(Cl)cc2)C1 [ABT-199, venetoclax, reference compound]","PARP1 cleavage, M14",M14 cells [1],PARP1 cleavage
same,interaction with Mcl-1 (SPR),Mcl-1,negligible interaction
"CC1(C)CCC(c2ccc(Cl)cc2)=C(CN2CCN(c3ccc(C(=O)NS(=O)(=O)c4ccc(N[C@H](CCN5CCOCC5)CSc5ccccc5)c(S(=O)(=O)C(F)(F)F)c4)cc3)CC2)C1 [ABT-263, navitoclax, reference compound]","PARP1 cleavage, M14",M14 cells [1],PARP1 cleavage
same,"ratio of LC3B-II on LC3B-I / LC3B-II protein level, M14",M14 cells [2],increased
CC(C)(C)c1ccc(C=NN2CCN(Cc3ccccc3Cl)CC2)cc1 [IS1],Kd,Bcl-2,480 ± 110 nM
O=C(CN1CCN(Cc2ccccc2Cl)CC1)N/N=C/c1ccccc1C(F)(F)F [IS27],Kd,Bcl-2,4600 ± 900 nM
CC(C)(C)c1ccc(-c2nnc(SCc3ccccc3F)n2N)cc1 [IS29],Kd,Bcl-2,3400 ± 1100 nM
COc1ccc(-c2cc(C(F)F)nc(N3CCN(Cc4ccccc4C)CC3)n2)cc1OC [ISP],Kd,Bcl-2,770 ± 140 nM
